Test results taken from US20160146788A1, “METHOD FOR SCREENING DRUGS FOR TREATING/PREVENTING MYELODYSPLASTIC SYNDROME, ETC” (KYOTO UNIVERSITY, priority 2013, published 2016).

System: hematopoietic progenitor cells induced from MDS-iPS cells
Assay: Colony formation assay of hematopoietic progenitor cells with p38 inhibitor added
Assay type: cell-based, human
Conditions: 10 μM SB203580 in methylcellulose medium, HPC from MDS-iPSC and Normal iPSC derived from KM5 and KM16, colonies counted after 14 or 15 days, FIG. 19
Description: Using a 35 mm culture dish, 2500 cells from the cells of CD43^+CD34^+CD38^− fraction induced to differentiate from iPS cells (abnormal MDS-iPSCs (NonT-iPS) and Normal iPSCs (T-iPS)) and extracted by flow cytometer were seeded in 2 ml of a methylcellulose medium containing SCF, G-CSF, GM-CSF, IL-3, IL-6 and EPO (MethoCult H4435) according to the method of Example 2. After 15 days, the number of the colonies was counted under a microscope. After Cytospin, Wright's staining was performed, and the colony type was identified by microscopic observation.
To study whether the decreased colony-forming ability of hematopoietic progenitor cells induced from MDS-iPS cells is recovered by the effect of p38 inhibitor, colony formation assay was performed by a method similar to Example 3 except that a p38 inhibitor was added. In brief, using a 35 mm culture dish, 2500 cells from the cells of CD43+CD34+CD38-fraction induced to differentiate from iPS cells (MDS-iPSCs (NonT-iPS)) and Normal iPSCs (T-iPS)) and extracted by flow cytometer were seeded in 1.1 ml of a methylcellulose medium containing SCF, G-CSF, GM-CSF, IL-3, IL-6, EPO and 10 μM SB203580 (p38 inhibitor) according to the method of Example 2. After 14 or 15 days, the number of colonies was counted under a microscope. Furthermore, after Cytospin, Wright's staining was performed, and the colony type was identified by microscopic observation.

C[S+]([O-])c1ccc(-c2nc(-c3ccncc3)c(-c3ccc(F)cc3)[nH]2)cc1 (centres unmarked) [SB203580]
colony-forming ability (number of colonies): colony-forming ability-improving effect
colony-forming ability (number of colonies) (listed as p38 inhibitor): improving effect on the colony-forming ability
